Measurements from the NIST ThermoML archive (doi:10.1016/j.jct.2017.08.004).
Numbers after ± are expanded uncertainties.

Assay: molar heat capacity at constant pressure
Settings: 101.33 kPa

OC[C@@H](O)[C@@H](O)[C@H](O)[C@H](O)CO [D-mannitol]
molar heat capacity at constant pressure [J/K/mol]
Settings | Small sample (50 mg) DSC | relaxation calorimetry
289.15 K, Crystal | 223.23 ± 36 | –
290 K, Crystal | – | 224.45 ± 14
290.15 K, Crystal | 223.75 ± 36 | –
291.15 K, Crystal | 224.51 ± 36 | –
292.15 K, Crystal | 225.52 ± 36 | –
292.3 K, Crystal | – | 226.18 ± 9.2
293.15 K, Crystal | 226.11 ± 36 | –
294.15 K, Crystal | 226.79 ± 36 | –
295.15 K, Crystal | 227.7 ± 37 | –
296.15 K, Crystal | 228.45 ± 37 | –
297.15 K, Crystal | 229.12 ± 37 | –
298.15 K, Crystal | 229.81 ± 37 | 230.54 ± 14
299.15 K, Crystal | 230.64 ± 37 | –
300 K, Crystal | – | 231.93 ± 14
300.15 K, Crystal | 231.67 ± 37 | –
301.15 K, Crystal | 232.46 ± 37 | –
302.15 K, Crystal | 233.28 ± 37 | –
302.32 K, Crystal | – | 233.27 ± 9.5
303.15 K, Crystal | 234.21 ± 38 | –
304.15 K, Crystal | 235.1 ± 38 | –
305 K, Crystal | 236.23 ± 38 | –
305.15 K, Crystal | 236.24 ± 38 | –
306.15 K, Crystal | 237.06 ± 38 | –
307.15 K, Crystal | 238.05 ± 38 | –
308.15 K, Crystal | 239.43 ± 38 | –
309.15 K, Crystal | 240.22 ± 39 | –
310 K, Crystal | 241.08 ± 39 | –
310.15 K, Crystal | 241.1 ± 39 | –
311.15 K, Crystal | 242.22 ± 39 | –
312.15 K, Crystal | 243.21 ± 39 | –
313.15 K, Crystal | 244.03 ± 39 | –
314.15 K, Crystal | 244.96 ± 39 | –
315 K, Crystal | 245.72 ± 39 | –
315.15 K, Crystal | 245.76 ± 39 | –
316.15 K, Crystal | 246.45 ± 40 | –
317.15 K, Crystal | 247.23 ± 40 | –
318.15 K, Crystal | 248.19 ± 40 | –
319.15 K, Crystal | 249.13 ± 40 | –
320 K, Crystal | 250.2 ± 40 | –
320.15 K, Crystal | 250.01 ± 40 | –
321.15 K, Crystal | 250.96 ± 40 | –
322.15 K, Crystal | 251.62 ± 40 | –
323.15 K, Crystal | 252.78 ± 41 | –
324.15 K, Crystal | 253.84 ± 41 | –
325 K, Crystal | 254.58 ± 41 | –
325.15 K, Crystal | 254.69 ± 41 | –
326.15 K, Crystal | 255.76 ± 41 | –
327.15 K, Crystal | 256.67 ± 41 | –
328.15 K, Crystal | 257.61 ± 41 | –
329.15 K, Crystal | 258.51 ± 42 | –
330 K, Crystal | 258.9 ± 42 | –
330.15 K, Crystal | 259.36 ± 42 | –
331.15 K, Crystal | 260.09 ± 42 | –
332.15 K, Crystal | 260.73 ± 42 | –
333.15 K, Crystal | 261.83 ± 42 | –
334.15 K, Crystal | 262.7 ± 42 | –
335 K, Crystal | 263.16 ± 42 | –
335.15 K, Crystal | 263.13 ± 42 | –
336.15 K, Crystal | 263.97 ± 42 | –
337.15 K, Crystal | 264.87 ± 43 | –
338.15 K, Crystal | 265.55 ± 43 | –
339.15 K, Crystal | 266.62 ± 43 | –
340 K, Crystal | 267.39 ± 43 | –
340.15 K, Crystal | 267.34 ± 43 | –
341.15 K, Crystal | 268.11 ± 43 | –
342.15 K, Crystal | 269.07 ± 43 | –
343.15 K, Crystal | 270.04 ± 43 | –
344.15 K, Crystal | 271.03 ± 44 | –
345 K, Crystal | 271.57 ± 44 | –
345.15 K, Crystal | 272.18 ± 44 | –
346.15 K, Crystal | 272.93 ± 44 | –
347.15 K, Crystal | 273.5 ± 44 | –
348.15 K, Crystal | 274.48 ± 44 | –
349.15 K, Crystal | 275.36 ± 44 | –
350 K, Crystal | 275.71 ± 44 | –
350.15 K, Crystal | 275.83 ± 44 | –
351.15 K, Crystal | 276.6 ± 44 | –
352.15 K, Crystal | 277.59 ± 45 | –
353.15 K, Crystal | 278.11 ± 45 | –
354.15 K, Crystal | 278.88 ± 45 | –
355 K, Crystal | 279.8 ± 45 | –
355.15 K, Crystal | 279.75 ± 45 | –
356.15 K, Crystal | 280.45 ± 45 | –
357.15 K, Crystal | 281.3 ± 45 | –
358.15 K, Crystal | 282.01 ± 45 | –
359.15 K, Crystal | 282.77 ± 45 | –
360 K, Crystal | 283.81 ± 46 | –
360.15 K, Crystal | 283.45 ± 46 | –
361.15 K, Crystal | 284.29 ± 46 | –
362.15 K, Crystal | 285.29 ± 46 | –
363.15 K, Crystal | 285.81 ± 46 | –
364.15 K, Crystal | 286.87 ± 46 | –
365 K, Crystal | 287.75 ± 46 | –
365.15 K, Crystal | 287.69 ± 46 | –
366.15 K, Crystal | 288.42 ± 46 | –
367.15 K, Crystal | 289.35 ± 46 | –
368.15 K, Crystal | 290.07 ± 47 | –
369.15 K, Crystal | 290.83 ± 47 | –
370 K, Crystal | 291.59 ± 47 | –
370.15 K, Crystal | 291.54 ± 47 | –
371.15 K, Crystal | 292.39 ± 47 | –
372.15 K, Crystal | 293.2 ± 47 | –
373.15 K, Crystal | 293.84 ± 47 | –
374.15 K, Crystal | 294.5 ± 47 | –
375 K, Crystal | 295.33 ± 47 | –
375.15 K, Crystal | 295.14 ± 47 | –
376.15 K, Crystal | 295.96 ± 48 | –
377.15 K, Crystal | 296.71 ± 48 | –
378.15 K, Crystal | 297.3 ± 48 | –
379.15 K, Crystal | 297.95 ± 48 | –
380 K, Crystal | 298.96 ± 48 | –
380.15 K, Crystal | 298.84 ± 48 | –
381.15 K, Crystal | 299.49 ± 48 | –
382.15 K, Crystal | 300.09 ± 48 | –
383.15 K, Crystal | 300.96 ± 48 | –
384.15 K, Crystal | 301.85 ± 48 | –
385 K, Crystal | 302.49 ± 49 | –
385.15 K, Crystal | 302.62 ± 49 | –
386.15 K, Crystal | 303.19 ± 49 | –
387.15 K, Crystal | 303.89 ± 49 | –
388.15 K, Crystal | 304.75 ± 49 | –
389.15 K, Crystal | 305.62 ± 49 | –
390 K, Crystal | 305.94 ± 49 | –
390.15 K, Crystal | 306.4 ± 49 | –
391.15 K, Crystal | 307.13 ± 49 | –
392.15 K, Crystal | 307.69 ± 49 | –
393.15 K, Crystal | 308.43 ± 50 | –
394.15 K, Crystal | 309.27 ± 50 | –
395 K, Crystal | 309.33 ± 50 | –
395.15 K, Crystal | 309.91 ± 50 | –
396.15 K, Crystal | 310.41 ± 50 | –
397.15 K, Crystal | 311.05 ± 50 | –
398.15 K, Crystal | 311.45 ± 50 | –
399.15 K, Crystal | 312.11 ± 50 | –
400 K, Crystal | 312.71 ± 50 | –
400.15 K, Crystal | 312.88 ± 50 | –
401.15 K, Crystal | 313.5 ± 50 | –
402.15 K, Crystal | 314.14 ± 50 | –
403.15 K, Crystal | 315.02 ± 51 | –
404.15 K, Crystal | 315.76 ± 51 | –
405 K, Crystal | 316.13 ± 51 | –
405.15 K, Crystal | 316.19 ± 51 | –
406.15 K, Crystal | 317 ± 51 | –
407.15 K, Crystal | 317.55 ± 51 | –
408.15 K, Crystal | 318.33 ± 51 | –
409.15 K, Crystal | 319.11 ± 51 | –
410 K, Crystal | 319.66 ± 51 | –
410.15 K, Crystal | 319.62 ± 51 | –
411.15 K, Crystal | 320.34 ± 51 | –
412.15 K, Crystal | 321.09 ± 52 | –
413.15 K, Crystal | 321.71 ± 52 | –
414.15 K, Crystal | 322.33 ± 52 | –
415 K, Crystal | 323.4 ± 52 | –
415.15 K, Crystal | 323.11 ± 52 | –
416.15 K, Crystal | 323.76 ± 52 | –
417.15 K, Crystal | 324.47 ± 52 | –
418.15 K, Crystal | 325.49 ± 52 | –
419.15 K, Crystal | 326.12 ± 52 | –
420 K, Crystal | 327.48 ± 53 | –
420.15 K, Crystal | 327.06 ± 53 | –
421.15 K, Crystal | 327.89 ± 53 | –
422.15 K, Crystal | 328.71 ± 53 | –
423.15 K, Crystal | 329.87 ± 53 | –
424.15 K, Crystal | 330.92 ± 53 | –
425 K, Crystal | 332.03 ± 53 | –
425.15 K, Crystal | 332.36 ± 53 | –
458.15 K, Liquid | 511.69 ± 82 | –
459.15 K, Liquid | 511.2 ± 82 | –
460 K, Liquid | 511.26 ± 82 | –
460.15 K, Liquid | 510.98 ± 82 | –
461.15 K, Liquid | 510.64 ± 82 | –
462.15 K, Liquid | 510.47 ± 82 | –
463.15 K, Liquid | 510.51 ± 82 | –
464.15 K, Liquid | 510.42 ± 82 | –
465 K, Liquid | 511.16 ± 82 | –
465.15 K, Liquid | 510.6 ± 82 | –
466.15 K, Liquid | 510.6 ± 82 | –
467.15 K, Liquid | 510.56 ± 82 | –
468.15 K, Liquid | 510.86 ± 82 | –
469.15 K, Liquid | 511.11 ± 82 | –
470 K, Liquid | 511.05 ± 82 | –
470.15 K, Liquid | 511.08 ± 82 | –
471.15 K, Liquid | 511.49 ± 82 | –
472.15 K, Liquid | 511.38 ± 82 | –
473.15 K, Liquid | 511.18 ± 82 | –
474.15 K, Liquid | 511.09 ± 82 | –
475 K, Liquid | 510.95 ± 82 | –
475.15 K, Liquid | 510.93 ± 82 | –
476.15 K, Liquid | 510.9 ± 82 | –
477.15 K, Liquid | 510.87 ± 82 | –
478.15 K, Liquid | 510.67 ± 82 | –
479.15 K, Liquid | 510.62 ± 82 | –
480 K, Liquid | 510.84 ± 82 | –
480.15 K, Liquid | 510.66 ± 82 | –
481.15 K, Liquid | 510.52 ± 82 | –
482.15 K, Liquid | 510.71 ± 82 | –
483.15 K, Liquid | 510.62 ± 82 | –
484.15 K, Liquid | 510.5 ± 82 | –
485 K, Liquid | 510.74 ± 82 | –
485.15 K, Liquid | 510.63 ± 82 | –
486.15 K, Liquid | 510.59 ± 82 | –
487.15 K, Liquid | 510.6 ± 82 | –
488.15 K, Liquid | 510.74 ± 82 | –
490 K, Liquid | 510.64 ± 82 | –
